Data reported in patent publication US10172824B2, “Crystal forms of scutellarin aglycone and preparation thereof” (YUNNAN INSTITUTE OF MATERIA MEDICA, priority 2014, dated 2019).
Read-outs that look alike come from different tables or passages of the source.

How the values were obtained:
[1] = Stability of crystal forms; conditions: room temperature below 50° C.
[2] = test system: ischemia/reperfusion rats; test: Evaluation of the degree of nerve function impairment (behavior score) in MCAO ischemia/reperfusion rats; format: in vivo, rat
Experimental: SD male rat was fasted one night, with free access to water. At the day of experiment, the rat was anesthetized by intraperitoneal injection of 35% chloral hydrate (350 mg/kg), and fixed on its back. The skin was incised along the neck median line to expose the carotid artery at the right side, and the internal and external carotid artery were separated. 3# nylon wire (a diameter of 0.285 mm) was inserted from the free end of the external carotid artery, introduced into the internal carotid artery from the distal end of the external carotid artery, and inserted at the artery of Willis's circle in brain, to effectively occlude the middle cerebral artery. The inserted nylon wire was 18˜20 mm away from carotid artery bifurcation. The free end of the external carotid artery and the intra cavitary nylon wire were ligated, to prevent bleeding. […] After middle cerebral artery occlusion (MCAO) for 2 h, the nylon wire was carefully drawn out from the internal carotid artery, and the internal carotid artery was subjected to reperfusion. […] The animals were grouped depending on the score of nerve function. Three groups were classified in the experiment, 15 animals for each group. […] In the sham-operated group and the model control group, an equal volume of 0.3% sodium carboxymethyl cellulose (CMC-Na) was administered. […] 2.3.1 Evaluation of the degree of nerve function impairment: the behavioral disorder of the animal was scored by double blind method at 1 h (before administration), 12 h, 24 h, 36 h, 48 h after reperfusion, according to the score standards in the following table, so as to evaluate the degree of nerve function impairment, wherein the total score is 16, the higher the score is, the more serious the degree of nerve function impairment is in the animal (Li Qian, Wang Qiujuan, Guo Qinglong, Protective effect of TQ0701-2 on cerebral ischemia reperfusion injury in rats [J]. CHINESE JOURNAL OF CLINICAL PHARMACOLOGY AND THERAPEUTICS, 2010, 15(1): 36-40.) Data was processed by the statistical analysis software SPSS11.5, and the results were expressed by x±s, and mathematical statistics were performed by using t-test for normal distribution data and using rank-sum test for skewed distribution.

[3] = test system: MCAO-induced ischemia-reperfusion rat; test: Cerebral infarction percentage 48 h after reperfusion (TTC staining) in MCAO ischemia/reperfusion rats; format: in vivo
Experimental: SD male rat was fasted one night, with free access to water. At the day of experiment, the rat was anesthetized by intraperitoneal injection of 35% chloral hydrate (350 mg/kg), and fixed on its back. The skin was incised along the neck median line to expose the carotid artery at the right side, and the internal and external carotid artery were separated. 3# nylon wire (a diameter of 0.285 mm) was inserted from the free end of the external carotid artery, introduced into the internal carotid artery from the distal end of the external carotid artery, and inserted at the artery of Willis's circle in brain, to effectively occlude the middle cerebral artery. The inserted nylon wire was 18˜20 mm away from carotid artery bifurcation. The free end of the external carotid artery and the intra cavitary nylon wire were ligated, to prevent bleeding. […] After middle cerebral artery occlusion (MCAO) for 2 h, the nylon wire was carefully drawn out from the internal carotid artery, and the internal carotid artery was subjected to reperfusion. […] The animals were grouped depending on the score of nerve function. Three groups were classified in the experiment, 15 animals for each group. […] In the sham-operated group and the model control group, an equal volume of 0.3% sodium carboxymethyl cellulose (CMC-Na) was administered. […] The rat was decapitated and the brain was taken 48 h after reperfusion, and was quickly frozen. The brain was cut along the coronal plane to obtain a 2 mm-thick slice. The brain slice was put in 1% TTC stain solution, and stained at 37° C. in dark by incubation for 30 min. After fixing with 10% formaldehyde solution for 1 week, the digits and images were stored in computer by digital camera imaging system. The infarction area and the whole brain area were determined by Medical Microscopic image Compute-aided Analysis System (MIAS) of Image Center of Beihang University, and the cerebral infarction percentage was calculated (the percentage of the infarction area in the whole brain area). […]

[4] = cited from earlier work; for substances detected in rat plasma: oral
[5] = compared with scutellarin; cited from earlier work
[6] = 360 mg scutellarin orally to a subject, 5 h (blood collected at 1, 3, 5, 8 h; determined only at 5 h); cited from earlier work

O=c1cc(-c2ccc(O)cc2)oc2cc(O)c(O)c(O)c12 [crystal form A, 5,6,7-trihydroxy-2-(4-hydroxyphenyl)-4H-benzopyran-4-one]
stability of crystal form [1]: the most stable crystal forms

O=c1cc(-c2ccc(O)cc2)oc2cc(O)c(O)c(O)c12 [scutellarin aglycone, 5,6,7-trihydroxy-2-(4-hydroxyphenyl)-4H-benzopyran-4-one]
improvement rate of nerve function disorder ([2]; crystal form A, 45.8 mg/kg intragastric, 48 h, compared to model control group, P<0.05): 34.97% | Behavior score at different time after reperfusion, 1 h ([2]; ischemia/reperfusion rats, 45.8 mg/kg, 1 h after reperfusion (before administration), total score 16, x ± s, n = 15): 10.57 ± 2.22 | Behavior score at different time after reperfusion, 12 h ([2]; ischemia/reperfusion rats, 45.8 mg/kg, 12 h after reperfusion, total score 16, x ± s, n = 15): 7.96 ± 2.29 | Behavior score at different time after reperfusion, 24 h ([2]; ischemia/reperfusion rats, 45.8 mg/kg, 24 h after reperfusion, total score 16, x ± s, n = 15): 7.15 ± 2.56 | Behavior score at different time after reperfusion, 36 h ([2]; ischemia/reperfusion rats, 45.8 mg/kg, 36 h after reperfusion, total score 16, x ± s, n = 15): 6.23 ± 2.87 | Behavior score at different time after reperfusion, 48 h ([2]; ischemia/reperfusion rats, 45.8 mg/kg, 48 h after reperfusion, total score 16, x ± s, n = 15): 5.69 ± 2.67 | reducing rate of cerebral infarction area ([3]; crystal form A, 45.8 mg/kg intragastric, compared to model control group, P<0.05): 42.46% | Cerebral infarction percentage (%) ([3]; ischemia/reperfusion rats, 45.8 mg/kg, TTC stain, x ± s, n = 15): 9.16 ± 0.09 % | Reducing rate (%) ([3]; reduction of cerebral infarction percentage compared to the model control group, 45.8 mg/kg): 42.46% | substances detected in rat plasma ([4]; 20 mg/kg scutellarin aglycone): only scutellarin was detected | substances detected in rat plasma ([4]; 200 mg/kg scutellarin aglycone): both scutellarin aglycone and scutellarin could be detected | metabolic stability ([4]; rats, intragastric, relative to scutellarin): metabolically stable relative to scutellarin | oral absorption relative to scutellarin [5]: about 3 fold | permeability in gastrointestinal tract [5]: higher permeability in gastrointestinal tract than scutellarin

O=C(O)[C@H]1O[C@@H](Oc2cc3oc(-c4ccc(O)cc4)cc(=O)c3c(O)c2O)[C@H](O)[C@@H](O)[C@@H]1O [scutellarin]
blood concentration of scutellarin [6]: 20 ng/mL
